The target in this assay is Dual specificity protein kinase TTK (Mus musculus) (UniProt P35761). The experiment in a line: Inhibition of mouse MPS1.

pIC50: −log10 of the molar value.

Chain of Dual specificity protein kinase TTK (Mus musculus) (P35761 whole entry, looked up): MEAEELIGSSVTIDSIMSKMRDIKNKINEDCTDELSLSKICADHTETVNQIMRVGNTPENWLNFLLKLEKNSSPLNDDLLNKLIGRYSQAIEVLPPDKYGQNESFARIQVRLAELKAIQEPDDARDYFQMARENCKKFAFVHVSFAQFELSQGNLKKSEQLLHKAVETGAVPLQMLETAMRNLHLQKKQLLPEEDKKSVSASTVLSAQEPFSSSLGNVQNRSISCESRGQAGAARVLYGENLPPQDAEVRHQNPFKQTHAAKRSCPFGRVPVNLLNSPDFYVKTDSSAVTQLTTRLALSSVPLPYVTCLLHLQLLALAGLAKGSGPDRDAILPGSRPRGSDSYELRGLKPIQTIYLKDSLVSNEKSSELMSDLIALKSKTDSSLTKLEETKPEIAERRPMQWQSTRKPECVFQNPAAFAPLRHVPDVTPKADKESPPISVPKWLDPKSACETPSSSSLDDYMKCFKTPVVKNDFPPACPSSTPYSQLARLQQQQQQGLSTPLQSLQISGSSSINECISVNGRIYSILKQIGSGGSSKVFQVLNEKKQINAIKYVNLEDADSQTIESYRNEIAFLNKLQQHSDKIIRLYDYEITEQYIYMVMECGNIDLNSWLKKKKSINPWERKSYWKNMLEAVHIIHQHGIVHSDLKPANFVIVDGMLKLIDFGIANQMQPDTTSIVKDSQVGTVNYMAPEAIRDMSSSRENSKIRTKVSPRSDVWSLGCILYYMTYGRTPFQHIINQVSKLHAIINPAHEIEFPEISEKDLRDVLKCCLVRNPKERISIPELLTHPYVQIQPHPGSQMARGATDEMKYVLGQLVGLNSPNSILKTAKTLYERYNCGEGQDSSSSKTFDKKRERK

With `CC(C)CNc1nc(-c2cccc3ncccc23)cn2c(-c3ccc(C(=O)NC4CC4)cc3)cnc12`, the pIC50 was 8.05.

Compound `CC(C)CNc1nccn2c(-c3ccc(C(=O)NC4CC4)cc3)cnc12` showed a negative logarithm of the IC50 (pIC50) of 7.26. Compared with the last compound, the pIC50 is 0.79 log units lower.

The values above are taken from BindingDB's records for doi:10.1021/acs.jmedchem.3c00963 (n/a, 2023).
